# Experimental data reported in publication PMC7180948, “New Insights into 4-Anilinoquinazolines as Inhibitors of Cardiac Troponin I–Interacting Kinase (TNNi3K)” (Molecules, 2020).
# Legend:
# Experiment in all cases: biochemical
# Set-up in all cases: KINOMEscan competition binding panel (Eurofins DiscoverX), single concentration, % inhibition
# Conditions in all cases: read-out: 7 at 1 µM % inhibition
# AAK1 = AAK1 (Homo sapiens, UniProt Q2M2I8)
# Summary of the method: (§1)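 Values come from single-concentration (1 µM) profiling in the Eurofins DiscoverX KINOMEscan competition-binding platform, which covers over 400 kinases.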
# [1] = target: T1, ABL1(F317I)-nonphosphorylated (Homo sapiens, UniProt P00519, F317I)
# T1 construct: nonphosphorylated
# Summary of the method: as §1
# ABL2 = ABL2 (Homo sapiens, UniProt P42684)
# Summary of the method: as §1
# AURKA = AURKA (Homo sapiens, UniProt O14965)
# Sequence of AURKA (O14965 whole entry): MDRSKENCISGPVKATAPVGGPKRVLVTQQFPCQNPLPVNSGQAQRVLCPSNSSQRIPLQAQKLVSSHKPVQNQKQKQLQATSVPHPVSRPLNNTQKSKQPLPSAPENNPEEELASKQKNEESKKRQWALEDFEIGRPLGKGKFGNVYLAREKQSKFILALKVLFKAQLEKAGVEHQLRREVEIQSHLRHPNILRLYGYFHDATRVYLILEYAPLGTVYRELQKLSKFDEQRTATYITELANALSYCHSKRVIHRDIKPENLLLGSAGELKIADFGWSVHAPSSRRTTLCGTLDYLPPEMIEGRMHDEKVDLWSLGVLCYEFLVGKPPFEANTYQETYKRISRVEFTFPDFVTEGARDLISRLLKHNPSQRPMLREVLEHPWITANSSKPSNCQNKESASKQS
# Summary of the method: as §1
# CDK4-cyclinD3 = target: T2, CDK4-cyclinD3 (Homo sapiens, UniProt P11802)
# T2 construct: cyclinD3
# Summary of the method: as §1
# EPHA6 = EPHA6 (Homo sapiens, UniProt Q9UF33)
# Summary of the method: as §1
# FAK = target: T3, FAK (Homo sapiens, UniProt Q05397)
# T3 construct: gene PTK2
# Summary of the method: as §1
# FGR = FGR (Homo sapiens, UniProt P09769)
# Summary of the method: as §1
# ITK = ITK (Homo sapiens, UniProt Q08881)
# Summary of the method: as §1
# [2] = target: T4, JAK1(JH2domain-pseudokinase) (Homo sapiens, UniProt P23458)
# T4 construct: JH2domain-pseudokinase
# Summary of the method: as §1
# [3] = target: T5, JAK2(JH1domain-catalytic) (Homo sapiens, UniProt O60674)
# T5 construct: JH1domain-catalytic
# Summary of the method: as §1
# MARK1 = MARK1 (Homo sapiens, UniProt Q9P0L2)
# Summary of the method: as §1
# NEK11 = NEK11 (Homo sapiens, UniProt Q8NG66)
# Summary of the method: as §1
# NEK9 = NEK9 (Homo sapiens, UniProt Q8TD19)
# Sequence of NEK9 (Q8TD19 whole entry): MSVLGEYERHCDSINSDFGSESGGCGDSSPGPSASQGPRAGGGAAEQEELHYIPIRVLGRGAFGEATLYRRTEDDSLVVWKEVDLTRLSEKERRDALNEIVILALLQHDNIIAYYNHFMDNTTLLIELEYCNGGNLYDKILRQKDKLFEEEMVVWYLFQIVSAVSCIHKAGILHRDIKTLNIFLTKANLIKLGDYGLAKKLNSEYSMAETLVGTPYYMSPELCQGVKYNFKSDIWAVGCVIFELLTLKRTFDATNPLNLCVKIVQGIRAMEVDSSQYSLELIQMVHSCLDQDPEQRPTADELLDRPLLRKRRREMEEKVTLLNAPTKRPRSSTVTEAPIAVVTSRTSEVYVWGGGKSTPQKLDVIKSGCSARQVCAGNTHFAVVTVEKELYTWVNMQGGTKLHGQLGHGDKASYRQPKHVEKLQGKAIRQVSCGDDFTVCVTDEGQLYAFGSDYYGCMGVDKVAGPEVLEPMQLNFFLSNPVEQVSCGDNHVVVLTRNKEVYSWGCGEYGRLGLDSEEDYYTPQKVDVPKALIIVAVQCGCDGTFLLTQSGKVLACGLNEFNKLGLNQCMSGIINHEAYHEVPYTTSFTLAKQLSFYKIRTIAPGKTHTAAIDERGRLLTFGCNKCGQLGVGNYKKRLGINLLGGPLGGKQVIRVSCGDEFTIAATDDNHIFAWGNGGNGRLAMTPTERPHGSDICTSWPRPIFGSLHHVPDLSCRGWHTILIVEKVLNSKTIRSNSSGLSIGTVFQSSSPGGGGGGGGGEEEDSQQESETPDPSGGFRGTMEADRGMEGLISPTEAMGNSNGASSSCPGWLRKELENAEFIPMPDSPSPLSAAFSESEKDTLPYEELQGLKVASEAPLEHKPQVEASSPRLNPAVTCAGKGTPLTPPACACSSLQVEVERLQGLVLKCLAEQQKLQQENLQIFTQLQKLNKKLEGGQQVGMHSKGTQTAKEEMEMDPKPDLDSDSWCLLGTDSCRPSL
# Summary of the method: as §1
# NIM1 = target: T6, NIM1 (Homo sapiens, UniProt Q8IY84)
# T6 construct: gene NIM1K
# Summary of the method: as §1
# PCTK1 = target: T7, PCTK1 (Homo sapiens, UniProt Q00536)
# T7 construct: gene CDK16
# T7 sequence (Q00536 whole entry): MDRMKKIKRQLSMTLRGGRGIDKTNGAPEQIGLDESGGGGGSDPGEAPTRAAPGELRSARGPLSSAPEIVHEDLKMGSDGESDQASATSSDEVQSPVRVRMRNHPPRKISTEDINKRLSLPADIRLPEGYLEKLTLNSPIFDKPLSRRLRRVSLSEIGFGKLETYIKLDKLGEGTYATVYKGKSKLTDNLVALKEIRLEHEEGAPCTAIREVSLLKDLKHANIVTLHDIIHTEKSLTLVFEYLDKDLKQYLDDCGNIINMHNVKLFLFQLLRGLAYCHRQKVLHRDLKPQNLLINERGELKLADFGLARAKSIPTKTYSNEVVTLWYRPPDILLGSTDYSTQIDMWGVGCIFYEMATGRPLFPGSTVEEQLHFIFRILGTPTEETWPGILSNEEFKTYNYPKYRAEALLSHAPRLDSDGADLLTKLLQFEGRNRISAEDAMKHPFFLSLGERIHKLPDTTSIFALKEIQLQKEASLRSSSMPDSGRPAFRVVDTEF
# Summary of the method: as §1
# PHKG1 = PHKG1 (Homo sapiens, UniProt Q16816)
# Sequence of PHKG1 (Q16816 whole entry): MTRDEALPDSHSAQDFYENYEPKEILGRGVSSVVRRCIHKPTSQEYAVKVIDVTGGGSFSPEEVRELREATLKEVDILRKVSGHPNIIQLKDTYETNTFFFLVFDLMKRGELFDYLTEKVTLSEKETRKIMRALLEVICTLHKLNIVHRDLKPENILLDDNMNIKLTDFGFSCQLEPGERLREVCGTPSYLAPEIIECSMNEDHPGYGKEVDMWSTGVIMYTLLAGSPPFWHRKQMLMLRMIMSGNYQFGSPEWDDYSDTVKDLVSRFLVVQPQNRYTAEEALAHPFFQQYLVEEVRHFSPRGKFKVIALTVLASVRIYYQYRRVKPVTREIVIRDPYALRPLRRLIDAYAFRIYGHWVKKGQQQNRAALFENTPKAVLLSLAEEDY
# Summary of the method: as §1
# PIP5K1C = PIP5K1C (Homo sapiens, UniProt O60331)
# Summary of the method: as §1
# PKN2 = PKN2 (Homo sapiens, UniProt Q16513)
# Summary of the method: as §1
# PRKD2 = PRKD2 (Homo sapiens, UniProt Q9BZL6)
# Sequence of PRKD2 (Q9BZL6 whole entry): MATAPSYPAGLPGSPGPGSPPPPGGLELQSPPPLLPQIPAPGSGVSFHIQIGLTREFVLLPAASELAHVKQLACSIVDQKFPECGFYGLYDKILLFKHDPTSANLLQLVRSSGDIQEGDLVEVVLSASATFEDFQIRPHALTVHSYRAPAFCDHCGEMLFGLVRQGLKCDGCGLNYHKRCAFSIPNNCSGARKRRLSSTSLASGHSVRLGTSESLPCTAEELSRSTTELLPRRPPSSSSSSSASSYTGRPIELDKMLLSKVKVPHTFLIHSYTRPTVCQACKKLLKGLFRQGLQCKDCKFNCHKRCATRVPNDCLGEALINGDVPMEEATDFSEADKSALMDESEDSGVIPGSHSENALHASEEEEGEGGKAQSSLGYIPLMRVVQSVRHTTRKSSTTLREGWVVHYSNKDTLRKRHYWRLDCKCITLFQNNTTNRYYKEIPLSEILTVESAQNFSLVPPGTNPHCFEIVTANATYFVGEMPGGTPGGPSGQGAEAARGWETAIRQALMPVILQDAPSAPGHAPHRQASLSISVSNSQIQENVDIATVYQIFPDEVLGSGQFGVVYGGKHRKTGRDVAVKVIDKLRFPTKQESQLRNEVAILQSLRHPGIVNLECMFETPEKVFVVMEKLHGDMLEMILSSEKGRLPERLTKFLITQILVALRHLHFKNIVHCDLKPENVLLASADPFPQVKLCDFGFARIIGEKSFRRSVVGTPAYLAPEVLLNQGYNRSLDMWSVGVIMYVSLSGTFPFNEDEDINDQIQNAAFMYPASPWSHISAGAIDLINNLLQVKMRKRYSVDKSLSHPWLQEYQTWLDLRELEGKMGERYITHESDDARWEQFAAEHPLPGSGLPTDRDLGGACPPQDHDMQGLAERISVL
# Summary of the method: as §1
# PRKD3 = PRKD3 (Homo sapiens, UniProt O94806)
# Sequence of PRKD3 (O94806 whole entry): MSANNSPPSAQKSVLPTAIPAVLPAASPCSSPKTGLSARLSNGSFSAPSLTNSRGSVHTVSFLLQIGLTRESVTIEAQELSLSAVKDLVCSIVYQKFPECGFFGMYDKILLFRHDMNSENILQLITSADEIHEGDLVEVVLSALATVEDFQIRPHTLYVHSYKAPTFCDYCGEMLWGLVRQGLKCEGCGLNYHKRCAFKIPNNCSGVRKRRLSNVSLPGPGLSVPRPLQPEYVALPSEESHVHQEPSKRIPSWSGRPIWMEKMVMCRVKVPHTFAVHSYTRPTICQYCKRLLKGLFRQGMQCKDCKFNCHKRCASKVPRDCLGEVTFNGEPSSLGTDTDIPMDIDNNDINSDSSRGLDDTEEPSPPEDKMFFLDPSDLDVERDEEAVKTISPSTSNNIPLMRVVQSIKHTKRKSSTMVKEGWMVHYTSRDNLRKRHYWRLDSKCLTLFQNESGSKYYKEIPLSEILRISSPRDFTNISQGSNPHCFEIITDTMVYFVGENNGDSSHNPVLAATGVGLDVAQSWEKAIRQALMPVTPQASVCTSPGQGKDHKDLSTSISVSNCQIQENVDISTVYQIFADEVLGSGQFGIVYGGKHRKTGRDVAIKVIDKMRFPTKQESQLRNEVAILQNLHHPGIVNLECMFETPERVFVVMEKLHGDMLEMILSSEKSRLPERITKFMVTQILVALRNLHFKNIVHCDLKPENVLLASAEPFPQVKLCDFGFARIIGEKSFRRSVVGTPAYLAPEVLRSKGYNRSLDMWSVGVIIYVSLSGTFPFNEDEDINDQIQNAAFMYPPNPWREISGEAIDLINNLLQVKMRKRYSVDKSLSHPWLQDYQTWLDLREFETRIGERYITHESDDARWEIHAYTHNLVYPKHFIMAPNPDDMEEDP
# Summary of the method: as §1
# RET(V804M) = RET(V804M) (Homo sapiens, UniProt P07949, V804M)
# Summary of the method: as §1
# RIPK4 = RIPK4 (Homo sapiens, UniProt P57078)
# Summary of the method: as §1
# WEE2 = WEE2 (Homo sapiens, UniProt P0C1S8)
# Summary of the method: as §1
# Sequence of AAK1 (Q2M2I8 whole entry): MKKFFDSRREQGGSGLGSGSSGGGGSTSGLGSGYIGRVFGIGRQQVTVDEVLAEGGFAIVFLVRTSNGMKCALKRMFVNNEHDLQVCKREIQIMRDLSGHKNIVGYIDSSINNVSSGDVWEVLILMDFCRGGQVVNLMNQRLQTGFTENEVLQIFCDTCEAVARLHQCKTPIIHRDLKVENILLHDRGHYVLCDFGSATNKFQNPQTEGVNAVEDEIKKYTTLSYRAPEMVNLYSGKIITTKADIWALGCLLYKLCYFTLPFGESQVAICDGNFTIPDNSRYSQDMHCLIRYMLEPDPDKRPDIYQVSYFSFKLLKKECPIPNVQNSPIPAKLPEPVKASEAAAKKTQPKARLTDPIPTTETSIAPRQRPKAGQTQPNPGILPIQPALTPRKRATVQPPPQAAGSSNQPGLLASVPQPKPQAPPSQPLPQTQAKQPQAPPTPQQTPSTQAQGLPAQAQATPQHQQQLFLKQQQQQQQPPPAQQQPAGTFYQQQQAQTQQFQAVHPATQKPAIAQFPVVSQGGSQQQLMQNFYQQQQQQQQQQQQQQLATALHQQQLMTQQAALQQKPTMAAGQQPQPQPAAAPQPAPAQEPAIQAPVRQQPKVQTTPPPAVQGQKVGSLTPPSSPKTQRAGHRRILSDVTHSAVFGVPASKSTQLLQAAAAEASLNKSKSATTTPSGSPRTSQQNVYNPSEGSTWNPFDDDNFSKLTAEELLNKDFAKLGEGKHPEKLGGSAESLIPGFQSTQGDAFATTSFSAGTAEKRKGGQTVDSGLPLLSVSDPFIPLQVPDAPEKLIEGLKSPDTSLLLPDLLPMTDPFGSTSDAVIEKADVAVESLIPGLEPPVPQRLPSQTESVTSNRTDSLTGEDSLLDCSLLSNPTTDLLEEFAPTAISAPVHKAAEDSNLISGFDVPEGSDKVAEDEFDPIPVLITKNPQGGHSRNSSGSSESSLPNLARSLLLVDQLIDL
smiles,measurement,setting,value
"CNS(=O)(=O)c1ccc(N(C)C)c(Nc2ncnc3cc(OC)c(OC)cc23)c1 [compound 7, 3-((6,7-dimethoxyquinazolin-4-yl)amino)-4-(dimethylamino)-N-methylbenzenesulfonamide]",inhibition at 1 µM,AAK1,0%
same,inhibition at 1 µM,[1],1%
same,inhibition at 1 µM,ABL2,0%
same,inhibition at 1 µM,AURKA,16%
same,inhibition at 1 µM,CDK4-cyclinD3,37%
same,inhibition at 1 µM,EPHA6,0%
same,inhibition at 1 µM,FAK,8%
same,inhibition at 1 µM,FGR,0%
same,inhibition at 1 µM,ITK,0%
same,inhibition at 1 µM,[2],20%
same,inhibition at 1 µM,[3],9%
same,inhibition at 1 µM,MARK1,7%
same,inhibition at 1 µM,NEK11,0%
same,inhibition at 1 µM,NEK9,0%
same,inhibition at 1 µM,NIM1,31%
same,inhibition at 1 µM,PCTK1,13%
same,inhibition at 1 µM,PHKG1,0%
same,inhibition at 1 µM,PIP5K1C,33%
same,inhibition at 1 µM,PKN2,11%
same,inhibition at 1 µM,PRKD2,8%
same,inhibition at 1 µM,PRKD3,7%
same,inhibition at 1 µM,RET(V804M),0%
same,inhibition at 1 µM,RIPK4,0%
same,inhibition at 1 µM,WEE2,0%
